# Assay results: US20150176022A1, “HERBICIDE-RESISTANT SUNFLOWER PLANTS, POLYNUCLEOTIDES ENCODING HERBICIDE=RESISTANT ACETO HYDROXY ACID SYNTHASE LARGE SUBUNIT PROTEINS, AND METHODS OF USE” (priority 2013, published 2015)
# “And” between values parts separate entries of the source, which are not always exact repeats. Equal entries are not always repeated.
# What was measured:
# [1] = test system: A122T versus A205V sunflower genotypes; test: Greenhouse whole-plant imazapir dose response (Example 8), difference between mutants; format: in vivo, Helianthus annuus; details: difference of group means, 14 DAT
# Experimental: (§1) A greenhouse study was conducted to quantify and contrast the imazapir sensitivity of the mutants A122T and A205V in different genetic backgrounds at the whole plant level in sunflower. Seeds of the different sunflower lines that were used in this study were obtained under field conditions.
# (§2) Seeds were sown in Petri dishes and, after germination, plantlets were transplanted to pots of 10 cm of diameter in a potting media consisting of equal parts of vermiculite, soil and sand. Plants were grown in a greenhouse under natural light conditions supplemented with 400 W sodium halide lamps to provide a 16 hrs daylength. Day/night temperatures were 25 and 20° C., respectively. At the V2 stage 10 plants of each genotype were randomly assigned to each treatment consisting of […] imazapir doses (0, 40, 80, 160, 240, 320, 400 and 480 g ai/ha), and a zero-time biomass determination. Experiment was arranged as a randomized block design with a full factorial (sunflower line×treatment) arrangement of treatments and 10 replications.
# (§3) On the day of herbicide application ten plants of each genotype were cut at the cotyledonal node and dried at 60° C. for 48 hrs zero-time for dried weight determination. […] Height was determined as the distance between the cotyledonal node and the apex of each plant. For root biomass determination, each plant was taken from the pot and the potting media was washed out from the roots. Above ground biomass data from each line were converted to biomass accumulation after application by subtracting the appropriate average zero-time biomass from each sample. Dry biomass data were converted to percentages of the untreated control plants within each line to allow direct comparisons between groups.
# [2] = test system: sunflower genotypes carrying the A122T mutation event; test: Greenhouse whole-plant imazapir dose response (Example 8), group mean; format: in vivo, Helianthus annuus; details: 14 DAT; for biomass, Dif with control (reduction), A122T / plant height, Dif with Control (height reduction), A122T / root dry weight, Dif with control (reduction), A122T: A122T mean; for biomass accumulation (% of untreated), Mean A122T / plant height (% of untreated), Mean A122T / root dry weight (% of untreated), Mean A122T: mean of six A122T genotypes
# Experimental: as §1, §2, §3
compound,measurement,setting,value
"CC(C)C1(C)N=C(c2ncccc2C(=O)O)NC1=O (stereo not shown) [imazapir, imazapyr]","Phytotoxicity Index, Dif A205V-A122T",[1]; 0.5× (40 g ai/ha),−0.29
same,"biomass, Dif A122T-A205V",[1]; 0.5× (40 g ai/ha),4.3%
same,"plant height, Dif A122T-A205V",[1]; 0.5× (40 g ai/ha),4.9%
same,"root dry weight, Dif A122T-A205V",[1]; 0.5× (40 g ai/ha),12.7%
same,"Phytotoxicity Index, Dif A205V-A122T",[1]; 1× (80 g ai/ha),−0.29
same,"biomass, Dif A122T-A205V",[1]; 1× (80 g ai/ha),14.5%
same,"plant height, Dif A122T-A205V",[1]; 1× (80 g ai/ha),9.4%
same,"root dry weight, Dif A122T-A205V",[1]; 1× (80 g ai/ha),26.7%
same,"Phytotoxicity Index, Dif A205V-A122T",[1]; 2× (160 g ai/ha),1.87
same,"biomass, Dif A122T-A205V",[1]; 2× (160 g ai/ha),33.2%
same,"plant height, Dif A122T-A205V",[1]; 2× (160 g ai/ha),28.0%
same,"root dry weight, Dif A122T-A205V",[1]; 2× (160 g ai/ha),43.6%
same,"Phytotoxicity Index, Dif A205V-A122T",[1]; 3× (240 g ai/ha),4.81
same,"biomass, Dif A122T-A205V",[1]; 3× (240 g ai/ha),45.3%
same,"plant height, Dif A122T-A205V",[1]; 3× (240 g ai/ha),45.3%
same,"root dry weight, Dif A122T-A205V",[1]; 3× (240 g ai/ha),50.2%
same,"Phytotoxicity Index, Dif A205V-A122T",[1]; 4× (320 g ai/ha),6.92
same,"biomass, Dif A122T-A205V",[1]; 4× (320 g ai/ha),52.4%
same,"plant height, Dif A122T-A205V",[1]; 4× (320 g ai/ha),59.9%
same,"root dry weight, Dif A122T-A205V",[1]; 4× (320 g ai/ha),50.3%
same,"Phytotoxicity Index, Dif A205V-A122T",[1]; 5× (400 g ai/ha),7.38
same,"biomass, Dif A122T-A205V",[1]; 5× (400 g ai/ha),46.9%
same,"plant height, Dif A122T-A205V",[1]; 5× (400 g ai/ha),57.8%
same,"root dry weight, Dif A122T-A205V",[1]; 5× (400 g ai/ha),47.9%
same,"Phytotoxicity Index, Dif A205V-A122T",[1]; 6× (480 g ai/ha),7.03
same,"biomass, Dif A122T-A205V",[1]; 6× (480 g ai/ha),44.6%
same,"plant height, Dif A122T-A205V",[1]; 6× (480 g ai/ha),54.0%
same,"root dry weight, Dif A122T-A205V",[1]; 6× (480 g ai/ha),37.3%
same,"biomass, Dif with control (reduction), A122T",[2]; 0.5× (40 g ai/ha),1.1%
same,"plant height, Dif with Control (height reduction), A122T",[2]; 0.5× (40 g ai/ha),0.6%
same,"root dry weight, Dif with control (reduction), A122T",[2]; 0.5× (40 g ai/ha),0.1%
same,"biomass, Dif with control (reduction), A122T",[2]; 1× (80 g ai/ha),3.2%
same,"plant height, Dif with Control (height reduction), A122T",[2]; 1× (80 g ai/ha),1.4%
same,"root dry weight, Dif with control (reduction), A122T",[2]; 1× (80 g ai/ha),2.5%
same,"biomass, Dif with control (reduction), A122T",[2]; 2× (160 g ai/ha),5.1%
same,"plant height, Dif with Control (height reduction), A122T",[2]; 2× (160 g ai/ha),2.7%
same,"root dry weight, Dif with control (reduction), A122T",[2]; 2× (160 g ai/ha),5.9%
same,"biomass, Dif with control (reduction), A122T",[2]; 3× (240 g ai/ha),7.2%
same,"plant height, Dif with Control (height reduction), A122T",[2]; 3× (240 g ai/ha),4.4%
same,"root dry weight, Dif with control (reduction), A122T",[2]; 3× (240 g ai/ha),10.6%
same,"biomass, Dif with control (reduction), A122T",[2]; 4× (320 g ai/ha),12.2%
same,"plant height, Dif with Control (height reduction), A122T",[2]; 4× (320 g ai/ha),6.3%
same,"root dry weight, Dif with control (reduction), A122T",[2]; 4× (320 g ai/ha),18.6%
same,"biomass, Dif with control (reduction), A122T",[2]; 5× (400 g ai/ha),20.7%
same,"plant height, Dif with Control (height reduction), A122T",[2]; 5× (400 g ai/ha),10.2%
same,"root dry weight, Dif with control (reduction), A122T",[2]; 5× (400 g ai/ha),21.3%
same,"biomass, Dif with control (reduction), A122T",[2]; 6× (480 g ai/ha),25% and 25.4%
same,"plant height, Dif with Control (height reduction), A122T",[2]; 6× (480 g ai/ha),15.8%
same,"root dry weight, Dif with control (reduction), A122T",[2]; 6× (480 g ai/ha),38.3%
same,"biomass accumulation (% of untreated), Mean A122T",[2]; 0.5× (40 g ai/ha),98.9%
same,"plant height (% of untreated), Mean A122T",[2]; 0.5× (40 g ai/ha),99.4%
same,"root dry weight (% of untreated), Mean A122T",[2]; 0.5× (40 g ai/ha),99.9%
same,"biomass accumulation (% of untreated), Mean A122T",[2]; 1× (80 g ai/ha),96.8%
same,"plant height (% of untreated), Mean A122T",[2]; 1× (80 g ai/ha),98.6%
same,"root dry weight (% of untreated), Mean A122T",[2]; 1× (80 g ai/ha),97.5%
same,"biomass accumulation (% of untreated), Mean A122T",[2]; 2× (160 g ai/ha),94.9%
same,"plant height (% of untreated), Mean A122T",[2]; 2× (160 g ai/ha),97.3%
same,"root dry weight (% of untreated), Mean A122T",[2]; 2× (160 g ai/ha),94.1%
same,"biomass accumulation (% of untreated), Mean A122T",[2]; 3× (240 g ai/ha),92.8%
same,"plant height (% of untreated), Mean A122T",[2]; 3× (240 g ai/ha),95.6%
same,"root dry weight (% of untreated), Mean A122T",[2]; 3× (240 g ai/ha),89.4%
